Values quoted from earlier work, collected in US20110189166A1, “METHODS OF TREATING HEMORHEOLOGIC ABNORMALITIES IN MAMMALS” (priority 2010, published 2011).

Key:
cows = conditions: inorganic phosphate for 2-5 days
red blood cell = conditions: in vitro
human erythrocytes = conditions: red blood cells exposed to LPA
flippase = conditions: independent of excess intracellular calcium
[1] = tested on: crenated or spiculated red blood cells (echinocytes); conditions: horses, after exercise; U.S. Pat. No. 4,383,997
[2] = tested on: aminophospholipid translocase (flippase); conditions: by complexing a sulfhydryl group

O=P(O)(O)O [inorganic phosphate]
hemolysis after treatment (cows): absence of hemolysis | time to complete recovery (cows): 14 to 21 days

CCCC(=O)Nc1ncnc2c1ncn2[C@@H]1O[C@@H]2COP(=O)(O)O[C@H]2[C@H]1OC(=O)CCC [dibutyryl-cAMP]
PS exposure (red blood cell): prevents PS exposure | intracellular calcium entry (red blood cell): inhibits intracellular calcium entry | reduction of red blood cell aggregation (red blood cell): about 50%

Lysophosphatidic acid [LPA]
PS exposure on red blood cells (human erythrocytes): resulted in PS exposure | adherence to endothelial cells (human erythrocytes): increased adherence to endothelial cells | thrombin generation (human erythrocytes): potentiated thrombin generation | flippase inhibition (flippase): inhibit flippase directly

CC(=O)CCCCn1c(=O)c2c(ncn2C)n(C)c1=O [pentoxyfylline]
increase of crenated red blood cells following exercise [1]: inhibit the increase of crenated red blood cells following exercise

CCN1C(=O)C=CC1=O [NEM, N-ethylmaleimide]
activity of aminophospholipid translocase (flippase) [2]: blocks the activity of aminophospholipid translocase (flippase)
